# Measured values published in patent US20020161528A1, “Tool for lipophilicity determination in drug discovery basic and neutral compounds” (Pfizer Inc., priority 2001, published 2002).
# Values joined by “and” are separate entries in the source; they are usually repeats but may differ in a detail not shown here. Equal entries are not always repeated. Where two headings read alike, the source gives them in different places.
# Legend:
# [1] = pH 7.4
# physchem = details: pH 7.4
# [2] = Reference logDoct at pH 7.4: literature shake-flask or countercurrent data, shake-vial and pH-metric determinations, averaged
# [3] = literature value (ref. 22); cited from earlier work
# [4] = Shake-vial logDoct, Procedure A (octanol / MOPS buffer); format: physicochemical; details: concentration decreased from 1.5 to 0.1 mg, 50:2 octanol:buffer
# Excerpt: (§1) The vials were shaken at least overnight.
# [5] = Semi-automated shake-vial logDoct, Procedure B (1:1 n-octanol / phosphate buffer pH 7.4); format: physicochemical; details: duplicate determinations
# Excerpt: as §1
# [6] = Table 1, capacity factor extrapolated to 0% methanol, average of three to five determinations
# [7] = Table 1, own shake-vial (Procedure A/B) and/or potentiometric determinations only
"log k′w [1, 6]",chromatographic logD (physchem),"logDoct [2, 7]",logDoct [4],logDoct [5],Compound,log k′w [1],"logDoct ([2]; Table 1, average of own shake-vial/potentiometric determinations and literature references)",logDoct [3]
−0.58,-0.45,−0.90,–,–,CCN(CC)CCNC(=O)c1cc(S(C)(=O)=O)ccc1OC [Tiapride],–,–,–
0.57,0.85,0.57,–,–,CNC(=NCCSCc1csc(N=C(N)N)n1)NC#N [Tiotidine],–,–,–
0.26,0.5,0.43,–,–,NS(=O)(=O)c1cc2c(cc1Cl)NC(C(Cl)Cl)NS2(=O)=O (stereo not shown) [Trichlormethiazide],–,–,–
0.53,0.8,0.74,–,–,Cc1ncc(-c2csc(N=C(N)N)n2)[nH]1 [Zaltidine],–,–,–
–,-0.3,–,−1.6 to −1.0,−0.1 and −0.3,N=C(N)NCC1COc2ccccc2O1 (stereo not shown) [guanoxan],–,–,−0.83

# Further lines, the compound ahead of its results:
Compound,"log k′w [1, 6]",chromatographic logD (physchem),"logDoct [2, 7]",logDoct [4],logDoct [5],log k′w [1],"logDoct ([2]; Table 1, average of own shake-vial/potentiometric determinations and literature references)",logDoct [3]
COc1ccc2c(c1)N(C[C@H](C)CN(C)C)c1ccccc1S2 [Methotrimeprazine],2.10,2.57,2.77,–,–,–,–,–
CN1CCCC1c1cccnc1 (stereo not shown) [Nicotine],–,0.23,0.40,–,–,0.02,–,–
CN1CCN(CC(=O)N2c3ccccc3C(=O)Nc3cccnc32)CC1 [Pirenzepine],−0.15,0.04,−0.61,–,–,–,–,–
CNS(=O)(=O)Cc1ccc2[nH]cc(CCN(C)C)c2c1 [Sumatriptan],−0.54,-0.4,–,–,–,–,−1.00,–
O=c1n(CCCN2CCN(c3cccc(Cl)c3)CC2)nc2ccccn12 [Trazodone],2.45,2.97,2.54,–,–,–,–,–
